{
  "source": "patent US12187721B2",
  "about": "“Protein tyrosine phosphatase inhibitors” (Array BioPharma Inc., priority 2018, dated 2025)",
  "molecular_target": "T1, full-length SHP2 (His6-tagged SHP2(2-527)) (Homo sapiens, UniProt Q06124)",
  "T1 construct": "His6-tagged SHP2(2-527); His6; made in house; host or cells: E. coli",
  "T1 sequence (Q06124 2-527)": "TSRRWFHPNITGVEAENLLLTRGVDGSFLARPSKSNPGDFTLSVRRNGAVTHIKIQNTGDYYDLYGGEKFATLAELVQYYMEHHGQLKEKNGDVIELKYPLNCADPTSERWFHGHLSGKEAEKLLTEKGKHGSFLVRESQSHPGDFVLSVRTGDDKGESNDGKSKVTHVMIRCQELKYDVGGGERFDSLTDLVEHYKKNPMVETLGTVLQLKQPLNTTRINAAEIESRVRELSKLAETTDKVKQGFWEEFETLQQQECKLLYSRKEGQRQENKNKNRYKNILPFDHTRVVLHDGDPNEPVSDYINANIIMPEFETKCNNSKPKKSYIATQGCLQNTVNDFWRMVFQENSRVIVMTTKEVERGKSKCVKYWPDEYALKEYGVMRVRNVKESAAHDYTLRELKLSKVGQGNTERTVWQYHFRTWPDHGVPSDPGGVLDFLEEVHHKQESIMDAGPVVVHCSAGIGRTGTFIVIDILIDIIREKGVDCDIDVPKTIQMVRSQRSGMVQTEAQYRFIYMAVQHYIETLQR",
  "test": "SHP2 Enzymatic Assay (fluorescence intensity kinetic assay, DiFMUP hydrolysis)",
  "format": "biochemical",
  "in_short": "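1 nM His6-SHP2(2-527), activated by 1 μM bis-phosphopeptide, hydrolysed 50 μM DiFMUP in 25 mM HEPES pH 7.4 with 1 mM DTT, 50 mM KCl and 2% DMSO. DiFMU fluorescence (Ex 355/Em 460 nm) was read kinetically for 15 min at ambient temperature.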",
  "key": {"[1]": {"conditions": "full-length SHP2 with 1 μM activating peptide, 50 μM DiFMUP, single assay or mean of multiple assays, read-out: Biological Example 1 IC50"}},
  "note": "pIC50: −log10 of the molar value. Where two headings read alike, the source gives them in different places.",
  "data": [
    {"smiles": "Nc1nccc(Sc2ccc3nc(N4[C@@H]5CCC[C@H]4CC(N)C5)cnc3n2)c1Cl", "note": "(stereo partly drawn) [Example 56, (1R,5S)-9-(6-((2-amino-3-chloropyridin-4-yl)thio)pyrido[2,3-b]pyrazin-2-yl)-9-azabicyclo[3.3.1]nonan-3-amine]", "values": [
      {"measurement": "pIC50", "result": 7.38}
    ]},
    {"smiles": "COc1cnc2c(c1)[C@@H](N)C1(CCN(c3cnc4nc(Sc5ccnc(N)c5Cl)ccc4n3)CC1)C2", "note": "[Example 115, (S)-1′-(6-((2-amino-3-chloropyridin-4-yl)thio)pyrido[2,3-b]pyrazin-2-yl)-3-methoxy-5,7-dihydrospiro[cyclopenta[b]pyridine-6,4′-piperidin]-5-amine]", "values": [
      {"measurement": "pIC50", "setting": "[1]", "result": 7.22}
    ]},
    {"smiles": "CNc1nccc(Sc2ccc3nc(N4CCCC(C)(N)CC4)cnc3n2)c1Cl", "note": "(centres unmarked) [Example 146, 1-(6-((3-chloro-2-(methylamino)pyridin-4-yl)thio)pyrido[2,3-b]pyrazin-2-yl)-4-methylazepan-4-amine]", "values": [
      {"measurement": "pIC50", "result": 7.05}
    ]},
    {"smiles": "CC1(N)CCN(c2cnc3nc(Sc4cccc(C#N)c4Cl)ccc3n2)CC1", "note": "[Example 35, 3-((2-(4-amino-4-methylpiperidin-1-yl)pyrido[2,3-b]pyrazin-6-yl)thio)-2-chlorobenzonitrile]", "values": [
      {"measurement": "pIC50", "setting": "[1]", "result": 6.57}
    ]},
    {"smiles": "Cn1ncc2cccc(Sc3ccc4nc(N5CCC(C)(N)CC5)cnc4n3)c21", "note": "[Example 34, 4-methyl-1-(6-((1-methyl-1H-indazol-7-yl)thio)pyrido[2,3-b]pyrazin-2-yl)piperidin-4-amine]", "values": [
      {"measurement": "pIC50", "result": 5.59}
    ]},
    {"smiles": "C[C@@H]1OCC2(CCN(c3cnc4nc(Sc5ccc(N)nc5C(F)(F)F)ccc4n3)CC2)[C@@H]1N", "note": "[Example 176, (3S,4S)-8-(6-((6-amino-2-(trifluoromethyl)pyridin-3-yl)thio)pyrido[2,3-b]pyrazin-2-yl)-3-methyl-2-oxa-8-azaspiro[4.5]decan-4-amine]", "values": [
      {"measurement": "pIC50", "result": 6.96}
    ]},
    {"smiles": "C[C@H]1CC[C@H](N)CN1c1cnc2nc(Sc3ccnc(N)c3Cl)ccc2n1", "note": "[Example 216, 4-((2-((2S,5S)-5-amino-2-methylpiperidin-1-yl)pyrido[2,3-b]pyrazin-6-yl)thio)-3-chloropyridin-2-amine]", "values": [
      {"measurement": "pIC50", "result": 5.51}
    ]},
    {"smiles": "Cc1ccc(Sc2ccc3nc(N4CCC(C)(N)CC4)cnc3n2)c(Cl)n1", "note": "[Example 98, 1-(6-((2-chloro-6-methylpyridin-3-yl)thio)pyrido[2,3-b]pyrazin-2-yl)-4-methylpiperidin-4-amine]", "values": [
      {"measurement": "pIC50", "result": 6.77}
    ]},
    {"smiles": "C[C@@H]1OCC2(CCN(c3cnc4nc(Sc5ccnc(N6CC[C@@H](CO)C6)c5Cl)ccc4n3)CC2)[C@@H]1N", "note": "[Example 106, ((R)-1-(4-((2-((3S,4S)-4-amino-3-methyl-2-oxa-8-azaspiro[4.5]decan-8-yl)pyrido[2,3-b]pyrazin-6-yl)thio)-3-chloropyridin-2-yl)pyrrolidin-3-yl)methanol]", "values": [
      {"measurement": "pIC50", "result": 7.00}
    ]},
    {"smiles": "Nc1nccc(Sc2ccc3nc(N4CCC5(CC4)C[C@@H](O)C[C@H]5N)cnc3n2)c1Cl", "note": "[Example 160, (2R,4R)-4-amino-8-(6-((2-amino-3-chloropyridin-4-yl)thio)pyrido[2,3-b]pyrazin-2-yl)-8-azaspiro[4.5]decan-2-ol]", "values": [
      {"measurement": "pIC50", "setting": "[1]", "result": 7.22}
    ]},
    {"smiles": "Cc1cccc2c1CC1(CCN(c3cnc4nc(Sc5ccnc(N)c5Cl)ccc4n3)CC1)[C@H]2N", "note": "[Example 168, (R)-1′-(6-((2-amino-3-chloropyridin-4-yl)thio)pyrido[2,3-b]pyrazin-2-yl)-4-methyl-1,3-dihydrospiro[indene-2,4′-piperidin]-1-amine]", "values": [
      {"measurement": "pIC50", "result": 7.27}
    ]},
    {"smiles": "Nc1nccc(Sc2ccc3nc(N4CCC(N)CC4)cnc3n2)c1Cl", "note": "[Example 81, 4-((2-(4-aminopiperidin-1-yl)pyrido[2,3-b]pyrazin-6-yl)thio)-3-chloropyridin-2-amine]", "values": [
      {"measurement": "pIC50", "result": 7.14}
    ]},
    {"smiles": "CC1(CN)CCN(c2cnc3nc(Sc4ccnc(N)c4Cl)ccc3n2)CC1", "note": "[Example 12, 4-((2-(4-(aminomethyl)-4-methylpiperidin-1-yl)pyrido[2,3-b]pyrazin-6-yl)thio)-3-chloropyridin-2-amine]", "values": [
      {"measurement": "pIC50", "setting": "[1]", "result": 7.21}
    ]},
    {"smiles": "CC1(N)CCN(c2cnc3nc(Oc4cccc(Cl)c4Cl)ccc3n2)CC1", "note": "[Example 15, 1-(6-(2,3-dichlorophenoxy)pyrido[2,3-b]pyrazin-2-yl)-4-methylpiperidin-4-amine]", "values": [
      {"measurement": "pIC50", "setting": "[1]", "result": 6.47}
    ]},
    {"smiles": "C[C@@H]1OCC2(CCN(c3cnc4nc(Sc5ccncc5Cl)ccc4n3)CC2)[C@@H]1N", "note": "[Example 187, (3S,4S)-8-(6-((3-chloropyridin-4-yl)thio)pyrido[2,3-b]pyrazin-2-yl)-3-methyl-2-oxa-8-azaspiro[4.5]decan-4-amine]", "values": [
      {"measurement": "pIC50", "result": 6.58}
    ]},
    {"smiles": "CC1(N)CCN(c2cnc3nc(Sc4cccc(Cl)c4Cl)ccc3n2)CC1", "note": "[Example 6, 1-(6-((2,3-dichlorophenyl)thio)pyrido[2,3-b]pyrazin-2-yl)-4-methylpiperidin-4-amine]", "values": [
      {"measurement": "pIC50", "result": 7.24}
    ]},
    {"smiles": "N[C@@H]1c2ccccc2CC12CCN(c1cnc3nc(Oc4ccc(F)cc4)ccc3n1)CC2", "note": "[Example 123, (S)-1′-(6-(4-fluorophenoxy)pyrido[2,3-b]pyrazin-2-yl)-1,3-dihydrospiro[indene-2,4′-piperidin]-1-amine]", "values": [
      {"measurement": "pIC50", "result": 7.68}
    ]},
    {"smiles": "NCC1CC2CCC(C1)N2c1cnc2nc(Sc3ccnc(N)c3Cl)ccc2n1", "note": "(centres unmarked) [Example 102, 4-((2-(3-(aminomethyl)-8-azabicyclo[3.2.1]octan-8-yl)pyrido[2,3-b]pyrazin-6-yl)thio)-3-chloropyridin-2-amine]", "values": [
      {"measurement": "pIC50", "result": 7.36}
    ]},
    {"smiles": "Nc1ncc(Sc2ccc3nc(N4CCC5(CC4)Cc4ccccc4[C@H]5N)cnc3n2)c(Cl)c1Cl", "note": "[Example 119, (S)-1′-(6-((6-amino-4,5-dichloropyridin-3-yl)thio)pyrido[2,3-b]pyrazin-2-yl)-1,3-dihydrospiro[indene-2,4′-piperidin]-1-amine]", "values": [
      {"measurement": "pIC50", "result": 7.41}
    ]},
    {"smiles": "N[C@@H]1c2ccccc2CC12CCN(c1cnc3nc(Sc4cnc5ccc(Cl)cn45)ccc3n1)CC2", "note": "[Example 127, (S)-1′-(6-((6-chloroimidazo[1,2-a]pyridin-3-yl)thio)pyrido[2,3-b]pyrazin-2-yl)-1,3-dihydrospiro[indene-2,4′-piperidin]-1-amine]", "values": [
      {"measurement": "pIC50", "result": 7.09}
    ]},
    {"smiles": "COc1cccc2c1CC1(CCN(c3cnc4nc(Sc5ccnc(N)c5Cl)ccc4n3)CC1)[C@@H]2N", "note": "[Example 155]", "values": [
      {"measurement": "pIC50", "result": 7.35}
    ]},
    {"smiles": "CC(C)(N)C1CCN(c2cnc3nc(Sc4cccc(Cl)c4Cl)ccc3n2)CC1", "note": "[Example 61, 2-(1-(6-((2,3-dichlorophenyl)thio)pyrido[2,3-b]pyrazin-2-yl)piperidin-4-yl)propan-2-amine]", "values": [
      {"measurement": "pIC50", "result": 5.80}
    ]},
    {"smiles": "Nc1nccc(Sc2ccc3nc(N4CCC5(CC4)Cc4cc(Cl)ccc4[C@@H]5N)cnc3n2)c1Cl", "note": "[Example 170, (R)-1′-(6-((2-amino-3-chloropyridin-4-yl)thio)pyrido[2,3-b]pyrazin-2-yl)-5-chloro-1,3-dihydrospiro[indene-2,4′-piperidin]-1-amine]", "values": [
      {"measurement": "pIC50", "result": 7.21}
    ]},
    {"smiles": "Nc1nccc(Sc2ccc3nc(N4CCC[C@H](N)CC4)cnc3n2)c1Cl", "note": "[Example 51, (S)-1-(6-((2-amino-3-chloropyridin-4-yl)thio)pyrido[2,3-b]pyrazin-2-yl)azepan-4-amine]", "values": [
      {"measurement": "pIC50", "result": 7.19}
    ]},
    {"smiles": "Nc1nccc(Sc2ccc3nc(N4CCC5(CC4)CNC5)cnc3n2)c1Cl", "note": "[Example 54, 4-((2-(2,7-diazaspiro[3.5]nonan-7-yl)pyrido[2,3-b]pyrazin-6-yl)thio)-3-chloropyridin-2-amine]", "values": [
      {"measurement": "pIC50", "result": 7.22}
    ]},
    {"smiles": "CC1(N)CCN(c2cnc3nc(Sc4ccc(N)nc4Cl)ccc3n2)CC1", "note": "[Example 97, 5-((2-(4-amino-4-methylpiperidin-1-yl)pyrido[2,3-b]pyrazin-6-yl)thio)-6-chloropyridin-2-amine]", "values": [
      {"measurement": "pIC50", "result": 6.75}
    ]},
    {"smiles": "C[Si]1(CN)CCN(c2cnc3nc(Sc4ccnc(N)c4Cl)ccc3n2)CC1", "note": "[Example 109, 4-((2-(4-(Aminomethyl)-4-methyl-1,4-azasilinan-1-yl)pyrido[2,3-b]pyrazin-6-yl)thio)-3-chloropyridin-2-amine]", "values": [
      {"measurement": "pIC50", "result": 7.57}
    ]},
    {"smiles": "C[C@@H]1OCC2(CCN(c3cnc4nc(Sc5ccnc(Cl)c5Cl)ccc4n3)CC2)[C@@H]1N", "note": "[Example 177, (3S,4S)-8-(6-((2,3-dichloropyridin-4-yl)thio)pyrido[2,3-b]pyrazin-2-yl)-3-methyl-2-oxa-8-azaspiro[4.5]decan-4-amine]", "values": [
      {"measurement": "pIC50", "result": 6.66}
    ]},
    {"smiles": "COc1nccc(Sc2ccc3nc(N4CCC(N)(CO)CC4)cnc3n2)c1Cl", "note": "[Example 44, (4-amino-1-(6-((3-chloro-2-methoxypyridin-4-yl)thio)pyrido[2,3-b]pyrazin-2-yl)piperidin-4-yl)methanol]", "values": [
      {"measurement": "pIC50", "result": 6.92}
    ]},
    {"smiles": "COc1nccc(-c2ccc3nc(N4CCC5(CC4)CO[C@@H](C)[C@H]5N)cnc3n2)c1Cl", "note": "[Example 21, (3S,4S)-8-(6-(3-chloro-2-methoxypyridin-4-yl)pyrido[2,3-b]pyrazin-2-yl)-3-methyl-2-oxa-8-azaspiro[4.5]decan-4-amine]", "values": [
      {"measurement": "pIC50", "result": 5.24}
    ]},
    {"smiles": "CC1(N)CCN(c2cnc3nc(Sc4ccnc(N5CCCC5)c4Cl)ccc3n2)CC1", "note": "[Example 49, 1-(6-((3-chloro-2-(pyrrolidin-1-yl)pyridin-4-yl)thio)pyrido[2,3-b]pyrazin-2-yl)-4-methylpiperidin-4-amine]", "values": [
      {"measurement": "pIC50", "result": 7.20}
    ]},
    {"smiles": "N[C@H]1C[C@@H]2CN(c3cnc4nc(Sc5cccc(Cl)c5Cl)ccc4n3)C[C@H]1O2", "note": "[Example 59, (1R,5R,6S)-3-(6-((2,3-dichlorophenyl)thio)pyrido[2,3-b]pyrazin-2-yl)-8-oxa-3-azabicyclo[3.2.1]octan-6-amine]", "values": [
      {"measurement": "pIC50", "result": 6.39}
    ]},
    {"smiles": "Nc1nccc(Sc2ccc3nc(N4C[C@@H]5CC[C@H]4CN5)cnc3n2)c1Cl", "note": "[Example 208, 4-((2-((1S,4S)-2,5-diazabicyclo[2.2.2]octan-2-yl)pyrido[2,3-b]pyrazin-6-yl)thio)-3-chloropyridin-2-amine]", "values": [
      {"measurement": "pIC50", "result": 7.17}
    ]},
    {"smiles": "Nc1nccc(Sc2ccc3nc(N4CCC5(CC4)Oc4ccccc4[C@H]5N)cnc3n2)c1Cl", "note": "[Example 132]", "values": [
      {"measurement": "pIC50", "result": 7.51}
    ]},
    {"smiles": "NCC1CN(c2cnc3nc(Sc4ccnc(N)c4Cl)ccc3n2)C1", "note": "[Example 85, 4-((2-(3-(aminomethyl)azetidin-1-yl)pyrido[2,3-b]pyrazin-6-yl)thio)-3-chloropyridin-2-amine]", "values": [
      {"measurement": "pIC50", "result": 6.32}
    ]}
  ]
}
